Source: ChEMBL document CHEMBL5550128, “Discovery and preclinical evaluations of TQB3616, a novel CDK4-biased inhibitor” (Bioorg Med Chem Lett, 2024)

What was measured:
MCF7 [1] = assay: Antiproliferative activity against Rb-proficient human MCF7 cells assessed as inhibition of cellular viability; assay type: functional, cell-based
MDA-MB-436 [2] = assay: Antiproliferative activity against Rb-deficient human MDA-MB-436 cells assessed as inhibition of cellular viability; assay type: functional, cell-based
MIA PaCa-2 = assay: Inhibition of cell proliferation in human MIA PaCa-2 cells at 0.3 uM incubated for 72 hrs by Cell Titer Glo assay relative to control; assay type: functional
BXPC-3 = assay: Inhibition of cell proliferation in human BXPC-3 cells at 0.3 uM incubated for 72 hrs by Cell Titer Glo assay relative to control; assay type: functional
OVCAR-3 = assay: Inhibition of cell proliferation in human OVCAR-3 cells at 0.3 uM incubated for 72 hrs by Cell Titer Glo assay relative to control; assay type: functional
SW-620 = assay: Inhibition of cell proliferation in human SW620 cells at 0.3 uM incubated for 72 hrs by Cell Titer Glo assay relative to control; assay type: functional
DU-145 = assay: Inhibition of cell proliferation in human DU-145 cells at 0.3 uM incubated for 72 hrs by Cell Titer Glo assay relative to control; assay type: functional
A673 = assay: Inhibition of cell proliferation in human A673 cells at 0.3 uM incubated for 72 hrs by Cell Titer Glo assay relative to control; assay type: functional
SK-MEL-24 = assay: Inhibition of cell proliferation in human SK-MEL-24 cells at 0.3 uM incubated for 72 hrs by Cell Titer Glo assay relative to control; assay type: functional
SK-MEL-28 = assay: Inhibition of cell proliferation in human SK-MEL-28 cells at 0.3 uM incubated for 72 hrs by Cell Titer Glo assay relative to control; assay type: functional
MCF7 [3] = assay: Induction of cell cycle arrest at G1 phase in Rb-proficient human MCF7 cells at 0.16 uM (reference value: 55.9 %); assay type: functional
MCF7 [4] = assay: Induction of cell cycle arrest at S phase in Rb-proficient human MCF7 cells at 0.16 uM (reference value: 19.19 %); assay type: functional
MDA-MB-436 [5] = assay: Induction of cell cycle arrest at G1 phase in Rb-deficient human MDA-MB-436 cells at 0.16 uM (reference value: 47.32 %); assay type: functional
MDA-MB-436 [6] = assay: Induction of cell cycle arrest at G2 phase in Rb-deficient human MDA-MB-436 cells at 0.16 uM (reference value: 28.59 %); assay type: functional
[7] = target: T1, Retinoblastoma-associated protein (Homo sapiens) (UniProt P06400); assay: Inhibition of Rb phosphorylation in human MCF7 cells incubated for 24 to 48 hrs by In-cell western assay; assay type: cell-based; conditions: dose 100-500 nM, time 24-48 hrs
T1 sequence (whole entry): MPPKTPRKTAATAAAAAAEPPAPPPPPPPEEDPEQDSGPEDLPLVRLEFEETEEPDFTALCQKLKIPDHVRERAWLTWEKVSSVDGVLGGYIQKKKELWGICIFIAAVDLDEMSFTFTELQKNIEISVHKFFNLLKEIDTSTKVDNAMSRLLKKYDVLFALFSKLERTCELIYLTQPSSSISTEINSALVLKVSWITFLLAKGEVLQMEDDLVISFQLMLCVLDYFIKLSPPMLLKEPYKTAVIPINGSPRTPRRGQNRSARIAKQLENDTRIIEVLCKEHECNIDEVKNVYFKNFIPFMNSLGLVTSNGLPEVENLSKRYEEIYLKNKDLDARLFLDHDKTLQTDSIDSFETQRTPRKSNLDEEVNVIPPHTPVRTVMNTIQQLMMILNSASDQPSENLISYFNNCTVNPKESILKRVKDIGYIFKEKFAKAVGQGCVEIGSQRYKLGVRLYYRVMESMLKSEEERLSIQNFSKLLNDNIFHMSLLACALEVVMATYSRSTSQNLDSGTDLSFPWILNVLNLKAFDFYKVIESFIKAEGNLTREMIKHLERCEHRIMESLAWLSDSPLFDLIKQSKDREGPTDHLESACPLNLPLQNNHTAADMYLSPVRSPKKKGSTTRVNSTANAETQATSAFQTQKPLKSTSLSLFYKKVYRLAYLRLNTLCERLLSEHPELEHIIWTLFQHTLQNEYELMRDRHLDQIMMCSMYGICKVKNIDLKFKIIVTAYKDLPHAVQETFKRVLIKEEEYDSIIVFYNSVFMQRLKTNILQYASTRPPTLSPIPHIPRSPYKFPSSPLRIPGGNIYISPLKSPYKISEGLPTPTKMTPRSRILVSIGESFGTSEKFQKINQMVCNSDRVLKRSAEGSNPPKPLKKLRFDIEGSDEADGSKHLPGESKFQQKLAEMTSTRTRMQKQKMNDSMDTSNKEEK

[8] = target: T1, Retinoblastoma-associated protein (Homo sapiens); assay: Inhibition of Rb phosphorylation in human MCF7 cells assessed as decrease in FoxM1 level incubated for 24 to 48 hrs by In-cell western assay; assay type: cell-based; conditions: dose 100-500 nM, time 24-48 hrs
[9] = Lipophilicity, logD of compound at pH 7.4 in Octanol buffer; assay type: physicochemical
[10] = Plasma protein in human assessed as unbound fraction; assay type: ADME, cell-free
Cytochrome P450 3A4 = Cytochrome P450 3A4 (Homo sapiens, UniProt P08684); assay: Inhibition of CYP3A4 (unknown origin) using midazolam as substrate; assay type: ADME
Cytochrome P450 3A4, sequence (P08684 whole entry): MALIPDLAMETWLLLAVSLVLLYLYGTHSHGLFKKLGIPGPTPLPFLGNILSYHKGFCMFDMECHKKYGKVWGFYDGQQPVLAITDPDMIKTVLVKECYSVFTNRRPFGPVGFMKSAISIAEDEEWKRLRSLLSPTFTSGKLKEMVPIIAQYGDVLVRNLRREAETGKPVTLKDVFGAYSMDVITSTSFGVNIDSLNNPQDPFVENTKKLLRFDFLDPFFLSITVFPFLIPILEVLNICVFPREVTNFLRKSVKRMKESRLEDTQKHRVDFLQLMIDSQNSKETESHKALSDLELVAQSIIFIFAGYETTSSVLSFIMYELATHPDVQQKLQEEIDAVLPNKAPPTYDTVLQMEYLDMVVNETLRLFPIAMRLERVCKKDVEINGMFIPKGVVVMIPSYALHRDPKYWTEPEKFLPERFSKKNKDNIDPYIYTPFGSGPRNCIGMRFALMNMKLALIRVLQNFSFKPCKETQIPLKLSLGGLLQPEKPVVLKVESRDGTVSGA

Cytochrome P450 2C19 = Cytochrome P450 2C19 (Homo sapiens, UniProt P33261); assay: Inhibition of CYP2C19 (unknown origin) using […] as substrate; assay type: ADME
Cytochrome P450 2C19, sequence (P33261 whole entry): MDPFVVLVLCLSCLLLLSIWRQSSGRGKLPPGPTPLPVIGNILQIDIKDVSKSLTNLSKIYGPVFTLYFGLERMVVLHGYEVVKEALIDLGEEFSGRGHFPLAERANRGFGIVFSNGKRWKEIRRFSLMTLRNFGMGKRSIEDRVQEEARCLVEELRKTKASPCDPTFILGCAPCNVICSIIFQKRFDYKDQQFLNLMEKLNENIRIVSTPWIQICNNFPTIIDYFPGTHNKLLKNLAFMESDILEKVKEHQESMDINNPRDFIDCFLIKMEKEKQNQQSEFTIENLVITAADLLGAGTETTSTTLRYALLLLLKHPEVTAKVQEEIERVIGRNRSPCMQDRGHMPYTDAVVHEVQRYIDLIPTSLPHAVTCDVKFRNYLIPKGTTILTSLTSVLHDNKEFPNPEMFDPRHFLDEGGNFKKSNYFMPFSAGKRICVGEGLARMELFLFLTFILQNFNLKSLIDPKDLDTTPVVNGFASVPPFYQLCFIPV

[11] = Cmax in CD-1 mouse at 2 mg/kg, po; assay type: ADME, organism-based; conditions: in vivo
[12] = AUC (0 to last) in CD-1 mouse at 2 mg/kg, po; assay type: ADME, organism-based; conditions: in vivo
[13] = Half life in Sprague-Dawley rat at 1 mg/kg, iv; assay type: ADME, organism-based; conditions: in vivo
[14] = AUC (0 to last) in Sprague-Dawley rat at 6 mg/kg, po; assay type: ADME, organism-based; conditions: in vivo
[15] = Intrinsic clearance in Beagle dog at 0.6 mg/kg, iv; assay type: ADME, organism-based, Canis lupus familiaris; conditions: in vivo
[16] = Volume of distribution at steady state in Beagle dog at 0.6 mg/kg, iv; assay type: ADME, organism-based, Canis lupus familiaris; conditions: in vivo, read-out: Vdss
[17] = Half life in Beagle dog at 0.6 mg/kg, iv; assay type: ADME, organism-based, Canis lupus familiaris; conditions: in vivo
[18] = Cmax in Beagle dog at 2 mg/kg, po; assay type: ADME, organism-based, Canis lupus familiaris; conditions: in vivo
[19] = Oral bioavailability in Beagle dog at 2 mg/kg; assay type: ADME, organism-based, Canis lupus familiaris; conditions: in vivo
MCF7 [20] = assay: Antitumor activity against human MCF7 cells xenografted in mouse at 15 mg/kg, po qd for 3 weeks relative to control; assay type: functional; conditions: MCF7, 504 h, read-out: TGI
[21] = Toxicity in mouse xenografted with human MCF7 cells assessed as body weight change at 5 to 15 mg/kg, po for 3 weeks relative to control; assay type: organism-based; conditions: in vivo, 504 h, dose 5-15 mg/kg
[22] = Antitumor activity against human PDX ES-06-0130 cells xenografted in mouse at 40 mg/kg, po qd for 3 weeks relative to control; assay type: functional; conditions: PDX ES-06-0130, 504 h, read-out: TGI
[23] = Toxicity in mouse xenografted with human PDX ES-06-0130 cells assessed as body weight change at 40 mg/kg, po qd for 3 weeks relative to control; assay type: organism-based; conditions: in vivo, 504 h

With `CC(C)c1c2cc(-c3nc(Nc4ccc(N5CCNCC5)cn4)ncc3F)ccc2nn1C` [CULMERCICLIB] the IC50 (MCF7 [1]) was 32.1 nM, the IC50 (MDA-MB-436 [2]) was 484 nM and the inhibition at 0.3 µM (MIA PaCa-2) was 48%. The inhibition at 0.3 µM (BXPC-3) was 23.1%, the inhibition at 0.3 µM (OVCAR-3) was 23% and the inhibition at 0.3 µM (SW-620) was 55.1%. For the same compound, the inhibition at 0.3 µM (DU-145) was 27.3%, the inhibition at 0.3 µM (A673) was -4.1% and the inhibition at 0.3 µM (SK-MEL-24) was 2.6%. It also gave an inhibition at 0.3 µM (SK-MEL-28) of 13.7%, an Activity (MCF7 [3]) of 68.93% and an Activity (MCF7 [4]) of 5.91%. The Activity (MDA-MB-436 [5]) was 46.59%, the Activity (MDA-MB-436 [6]) was 26.29% and the inhibition [7] was “Dose-Dependent Effect”. The inhibition [8] was “Dose-Dependent Effect”, the logD [9] was 2.4 and the fraction unbound [10] was 0.08. For the same compound, the IC50 (Cytochrome P450 3A4) was greater than 50000 nM, the IC50 (Cytochrome P450 2C19) was 9330 nM and the Cmax [11] was 248 nM. It also gave an AUC(0-t) [12] of 1.37 µM·h, a half-life [13] of 4.2 h and an AUC(0-t) [14] of 5.88 µM·h. The CL [15] was 32 mL/min/kg, the Vd [16] was 17.1 L/kg and the half-life [17] was 7.8 h. The Cmax [18] was 109 nM, the bioavailability [19] was 56% and the inhibition in vivo at 15 mg/kg (MCF7 [20]) was 93%. The Activity [21] was less than 5%, the inhibition in vivo at 40 mg/kg [22] was 62% and the Activity [23] was less than 10%.
